Numbering of substitutions follows the chain as printed.
What was measured:
SapB [1] = target: T1, SapB (Homo sapiens, UniProt P07602); test: Fluorescence quenching titration of SapB with ligand (double logarithmic Stern-Volmer analysis); type: binding; conditions: 40 μM SapB, 50 mM phosphate buffer pH 5.5, average of three runs; for Kd: read-out: LogKA of binding by SapB (converted)
T1 construct: made in house; host or cells: E. coli
T1 sequence (P07602 195-273 limits assumed): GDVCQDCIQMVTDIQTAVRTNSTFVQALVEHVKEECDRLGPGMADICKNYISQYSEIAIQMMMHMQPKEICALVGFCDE
Description: A2E and SapB were prepared and purified according to literature reports. To determine the A2E/protein binding stoichiometry, a fluorescence titration was carried out by incrementally adding small amounts of A2E to a solution of SapB (FIG. 2). […] A double logarithmic plot of
Fluorescence quenching measurements were performed on a Varian Cary Eclipse fluorimeter equipped with a QNW Peltier temperature controller. The experiments were conducted at 25.00±0.01° C. in 50 mM phosphate buffer, pH 5.50 or 7.40 using 278 nm excitation wavelength for sapB emission spectra at 325 nm (FIG. 2) or 444 nm excitation for A2E emission at 602 nm (FIG. 3) with excitation and emission monochromators bandwidth of 5 nm each. The fluorescence quenching data were analyzed using OriginLab software version 8.
The interaction of SapB (prepared as described above) with a variety of ligands was followed by monitoring the quenching of the fluorescence intensities of the protein's tyrosine residues upon binding (FIG. 12 Panels a-f).
For each ligand tested 40 μM SapB in 50 mM phosphate buffer at pH 5.5 was titrated with ligand and quenching was monitored at the fluorescence maxima at 330 nm. […] All of the fluorescence data were analyzed by a double logarithmic Stern-Volmer plot, shown for all ligands, using the emission maxima to determine binding affinity, presented in Table 3, and using the following equation
Materials and Methods—Saposin B (SapB) was prepared and purified as described above. Briefly, SapB solutions in this study were prepared in 50 mM phosphate buffer, pH 5.5. […] Ligand solutions were prepared in 100% dimethylformamide (DMF) to a concentration of 2 mM, with the exception of hydoxychloroquine (HCQ), which was prepared in 50 mM phosphate buffer, pH 5.5. […] 4.2. Fluorescence Spectroscopy. Fluorescence quenching measurements were performed on a Varian Cary Eclipse fluorimeter equipped with a QNW Peltier temperature controller. The binding experiments were conducted at 25.00±0.01° C. in 50 mM phosphate buffer, pH 5.5, using 278 nm excitation wavelength for SapB emission spectra at 330 nm (FIG. 1a-f) with excitation and emission monochromators bandwidth of 5 nm each. Temperature sensitive binding experiments were performed between 20.00±0.01 and 40.00±0.01° C. using 278 nm excitation wavelength for SapB emission spectra at 331 nm, with excitation and emission monochromators bandwidth of 5 nm each. The fluorescence quenching data were analyzed using OriginLab software version 8.

SapB mutant E69A = target: T2, SapB mutant E69A (Homo sapiens, UniProt P07602, E263A); test: Fluorescence binding assay (Stern-Volmer and temperature dependent), E69A with ATO; conditions: 25° C.; read-out: KA at 25° C., E69A-ATO
T2 construct: is a product of the post-translational cleavage of prosaposin, along with SapA, SapC, and SapD
T2 sequence (P07602 195-273 E263A): T1 sequence (P07602 195-273 limits assumed) with E69A
Description: The deviation observed for [SapB-ATO]complex from the trend warranted further investigation. In order to examine this deviation, a previously described SapB mutant […] (denoted as […] from here on) was used. Fluorescence studies were performed with […] and ATO as described herein for wild type SapB. […] Isothermal titration calorimetry has shown that [SapB-ATO]complex formation has a larger enthalpic contribution than [SapB-CQ]complex and [SapB-CoQ10]complex. Thus, the shift in binding affinity between [SapB-ATO]complex and [[…]-ATO]complex binding may be due to a shift in the thermodynamics of binding. In order to test this, temperature dependent fluorescence studies were performed with […] and ATO, as well as with SapB and ATO. Fluorescence titration experiments were carried out at five different temperatures for each of the […]-ATO and SapB-ATO experiments (FIG. 14). At each temperature, protein was prepared in phosphate buffer solution and ATO was then added via titration. The quenching of SapB or […] fluorescence was monitored at 330 nm and the KA was calculated via double logarithmic Stern-Volmer analysis. […] Fluorescence Spectroscopy. Fluorescence quenching measurements were performed on a Varian Cary Eclipse fluorimeter equipped with a QNW Peltier temperature controller. […] The fluorescence quenching data were analyzed using OriginLab software version 8.

SapB [2] = target: T1, SapB; test: Temperature dependent fluorescence binding assay, SapB with ATO; conditions: 25° C.; read-out: KA at 25° C., SapB-ATO
Description: Isothermal titration calorimetry has shown that [SapB-ATO]complex formation has a larger enthalpic contribution than [SapB-CQ]complex and [SapB-CoQ10]complex. Thus, the shift in binding affinity between [SapB-ATO]complex and [[…]-ATO]complex binding may be due to a shift in the thermodynamics of binding. In order to test this, temperature dependent fluorescence studies were performed with […] and ATO, as well as with SapB and ATO. Fluorescence titration experiments were carried out at five different temperatures for each of the […]-ATO and SapB-ATO experiments (FIG. 14). At each temperature, protein was prepared in phosphate buffer solution and ATO was then added via titration. The quenching of SapB or […] fluorescence was monitored at 330 nm and the KA was calculated via double logarithmic Stern-Volmer analysis. The best-fit plot of InKeq vs. 1/T, where was used to calculate the standard enthalpy, entropy, and Gibb's Free energy of binding for the formation of [[…]-ATO]complex and Materials and Methods-Saposin B (SapB) was prepared and purified as described above. […] Fluorescence Spectroscopy. Fluorescence quenching measurements were performed on a Varian Cary Eclipse fluorimeter equipped with a QNW Peltier temperature controller. […] The fluorescence quenching data were analyzed using OriginLab software version 8.

[3] = target: T3, pre-formed [SapB-Ligand]complex (Homo sapiens, UniProt P07602); test: Competition / order of addition fluorescence binding with pre-formed SapB complexes; conditions: A2E fluorescence at 602 nm, excitation 444 nm, pH 5.5
T3 construct: is a product of the post-translational cleavage of prosaposin, along with SapA, SapC, and SapD; made in house; host or cells: E. coli
T3 sequence (P07602 195-273 limits assumed): T1 sequence (P07602 195-273 limits assumed)
Description: We have reported in an earlier study the binding properties of SapB to CoQ10 (a bone fide substrate). To determine whether it binds to the same binding site on the protein or displaces A2E from SapB, a series of fluorescence titration experiments in the presence and absence of CoQ10 were performed.
An 800 μL, 20 μM SapB to 10 μM CoQ10 complex was made in pH 5.5 50 mM phosphate buffer. The complex was formed at room temperature in a 1 mL glass vial with gentle stirring for 10 minutes. The entire solution was then transferred to a clear fluorescence cuvette. Fluorescence experiments were performed under emission conditions on a Cary Eclipse Fluorescence Spectrophotometer, with an excitation wavelength of 444 nm, emission wavelength range of 500-800 nm, excitation slit width set to 10 nm, and emission slit width set to 10 nm. […] Analysis of A2E binding the SapB-CoQ10 complex was performed by tracking fluorescence intensity at A2E's peak emission wavelength of 602 nm and plotting it against the concentration of A2E added per each injection.
A SapB-ATO complex was formed by adding 20 μL of the experimental stock to 1 mL of the SapB experimental stock for a final volume of 1020 μL in a 1.5 mL Eppendorf tube. […] The entire 1020 μL was then transferred to a clear fluorescence cuvette. […]

| Compound | LogKA of binding by SapB (SapB [1]) | Kd (SapB [1]) [µM] | other results |
| --- | --- | --- | --- |
| CC1=C(/C=C/C(C)=C/C=C/C(C)=C/C=C/C=C(C)/C=C/C=C(\C)C=O)C(C)(C)CCC1 [Apocarotenal, apo-carotenal] | 4.618 |  |  |
| O=C1C(O)=C([C@H]2CC[C@H](c3ccc(Cl)cc3)CC2)C(=O)c2ccccc21 [Atovaquone, atovaquone] |  | 0.0288 | Kd (SapB mutant E69A): 58.5 µM; Kd (SapB [2]): 0.112 µM |
| CCN(CC)CCCC(C)Nc1ccnc2cc(Cl)ccc12 (stereo not drawn) [Chloroquine, chloroquine] |  | 70.1 |  |
| COC1=C(OC)C(=O)C(C/C=C(\C)CC/C=C(\C)CC/C=C(\C)CCC=C(C)C)=C(C)C1=O [Coenzyme Q4] | 5.103 |  |  |
| COC1=C(OC)C(=O)C(C/C=C(\C)CC/C=C(\C)CC/C=C(\C)CC/C=C(\C)CC/C=C(\C)CC/C=C(\C)CC/C=C(\C)CC/C=C(\C)CCC=C(C)C)=C(C)C1=O [Coenzyme Q9] | 6.196 |  |  |
| COC1=C(OC)C(=O)C(C/C=C(\C)CC/C=C(\C)CC/C=C(\C)CC/C=C(\C)CC/C=C(\C)CC/C=C(\C)CC/C=C(\C)CC/C=C(\C)CC/C=C(\C)CCC=C(C)C)=C(C)C1=O [Coenzyme Q10, coenzyme Q10] |  | 0.0631 | A2E binding on titration into SapB pre-complexed with the ligand [3]: identical fluorescence titration pattern |
| CCN(CCO)CCCC(C)Nc1ccnc2cc(Cl)ccc12 (stereo not drawn) [Hydoxychloroquine, hydroxychloroquine] |  | 155 |  |
| phosphatidyl-choline [Phosphatidylcholine] | 6.075 |  |  |
| phosphatidylethanolamine | 5.227 |  |  |
